Measured values reported in patent publication US5484803A, “Transcutaneous in vivo activation of photosensitive agents in blood” (priority 1995, dated 1996).
Where “and” joins values, the source holds several entries; their conditions need not be identical. Identical values can stand only once.

Tests used:
[1] = test system: mouse blood; assay: Blood parameters immediately after light exposure (acute effect); type: in vivo, mice
Experimental: Blood Tests: Blood was drawn into syringes containing 50 μl of heparin (1000 units/ml saline). Blood samples (0.45 ml) from at least 1 mouse per time point were sent to the Diagnostic Laboratory at the University Hospital, University of British Columbia site, for analysis by a Coulter Counter. Blood morphology was determined on blood films prepared from selected samples by a laboratory technologist.
(§1) Fourteen mice (weight 22±1 g) were used in this study. Twelve mice were injected with 20 μg (0.9 mg/kg) of liposomal BPD (in 200 μl) and kept in the dark for 1 hour before exposure to light. The mice each were exposed to light for 30 min, 1 hour or 1.5 hours, which delivered light doses to the skin surface of 54, 108 and 162 J/cm^2, respectively. Immediately after light exposure, blood samples were obtained. At the corresponding times, blood samples were obtained from two mice injected with BPD, but not exposed to light. Two additional mice were tested one hour after injection.

[2] = Transcutaneous activation: photodegradation of BPD in plasma in vivo; design: species or system mice; conditions: for BPD in Plasma: individual values; for photodegraded BPD, Dose / Photodegraded BPD: in vivo
Text: The light box was custom built at a workshop at the University of British Columbia. It was composed of two layers of 14 75 W tungsten-halogen reflector bulbs (General Electric), which illuminated the treatment area from the top and from the bottom. Light was filtered by 1) a set of filters comprising yellow and red plastic films which absorbed most of the light at wavelengths shorter than 600 nm and 2) 15 mm thick water filters which absorbed light above 900 nm. Cooling was provided by a steady flow of cold water in the water filters and by a set of 5 fans. The light intensity was measured by an IL 1350 Photometer (International Light).
The intensity of light delivered by the top and bottom sets of bulbs was not uniform. The bottom set delivered 33-40 mW/cm^2 as measured at floor level of the exposure chamber, while the top set delivered 27-33 mW/cm^2 as measured at the skin surface of the backs of the animals. The range described resulted from inconsistent influence at the horizontal plane of irradiation. In addition, mice moved about during light exposure, so that at various times different parts of their skin received different amounts of light. Therefore, the doses delivered to the surface of mice skin must be approximated and the calculations have been based on an intensity of 30 mW/cm^2.
Determination of BPD Concentration in Plasma: Plasma samples were obtained by centrifugation of blood collected from mice and stored frozen at -20° C. until assessment. The concentration of BPD in the samples was determined by fluorometry using a Jasco Model FP-770 (Japan Spectroscopic Co.) spectrofluorometer and a microcuvette (Far UV Quartz Cell, Starna Cells Inc.). Excitation and emission wavelengths were 439 and 699 nm, respectively. Plasma samples were diluted 20-fold with PBS containing 1% Triton® X-100 immediately before fluorescence was determined. BPD standards were prepared in 5% mouse plasma in PBS with 1% Triton® X-100. Under these conditions the relationship between the concentration of BPD and units of fluorescence was linear (correlation coefficient >0.99) for concentrations between 0.1 ng/ml and 1 μg/ml. The limit of detection was below 0.1 ng/ml sample which corresponded to 2 ng/ml plasma. […] The 699 nm fluorescence peak of BPD was virtually free from any interference.
as §1
The aim of this study was to determine light penetration of the tissues to activate BPD. It was assumed that the substantial photodegradation of BPD in blood would represent substantial activation of BPD.
The BPD plasma concentration was then determined by fluorescence. The concentrations of unchanged BPD in the plasma of exposed and unexposed control mice were compared.

[3] = BPD 0.87 mg/kg, light 0, 1 1/2 h post inj.
[4] = BPD 0.87 mg/kg, light 0, 2 1/2 h post inj.
[5] = BPD 0.87 mg/kg, light 0, 1 h post inj.
[6] = BPD 0.93 mg/kg, light 0, 2 h post inj.
[7] = BPD 0.93 mg/kg, light 162 J/cm^2, 2 1/2 h post inj.
[8] = BPD 0.95 mg/kg, light 54 J/cm^2, 1 1/2 h post inj.
[9] = BPD 0.95 mg/kg, light 108 J/cm^2, 2 h post inj.
[10] = 1 1/2 h - C, no light, 2 1/2 h post injection, 0.9 mg/kg, 150 min
[11] = 1 1/2 h light, 162 J/cm^2, 2 1/2 h post injection, 0.9 mg/kg, 150 min
[12] = 30 min - C, no light, 1 1/2 h post injection, 0.9 mg/kg, 90 min
[13] = 30 min light, 54 J/cm^2, 1 1/2 h post injection, 0.9 mg/kg, 90 min

In the case of “benzoprophyrin derivative monoacid ring A [BPD]”, the “acute effect on blood parameters” value ([1]; 0.9 mg/kg liposomal BPD, 54-162 J/cm^2) is reported as “no acute effect on blood parameters was observed”, the HB [1, 3] is reported as 117 g/L and the Hct [1, 3] is reported as 0.329. For the same substance, the MCV [1, 3] was 48.7 fL, the PLT [1, 3] was 428 10^6 /ml and the RBC [1, 3] was 6.77 10^9 /ml. The WBC [1, 3] was 4.4 10^6 /ml, the HB [1, 4] was 129 g/L and the Hct [1, 4] was 0.372. For the same substance, the MCV [1, 4] was 48.5 fL, the PLT [1, 4] was 447 10^6 /ml and the RBC [1, 4] was 7.68 10^9 /ml. For the same substance, the WBC [1, 4] was 3.9 10^6 /ml, the HB [1, 5] was 124 g/L and the Hct [1, 5] was 0.368. For the same substance, the MCV [1, 5] was 48.4 fL, the PLT [1, 5] was 608 10^6 /ml and the RBC [1, 5] was 7.61 10^9 /ml. For the same substance, the WBC [1, 5] was 5.5 10^6 /ml, the HB [1, 6] was 129 g/L and the Hct [1, 6] was 0.382. For the same substance, the MCV [1, 6] was 49.1 fL, the PLT [1, 6] was 475 10^6 /ml and the RBC [1, 6] was 7.79 10^9 /ml. The WBC [1, 6] was 11.4 10^6 /ml, the HB [1, 7] was 116 g/L and the Hct [1, 7] was 0.353. The MCV [1, 7] was 49.2 fL, the PLT [1, 7] was 506 10^6 /ml and the RBC [1, 7] was 7.17 10^9 /ml. For the same substance, the WBC [1, 7] was 4.9 10^6 /ml, the HB [1, 8] was 127 g/L and the Hct [1, 8] was 0.363. The MCV [1, 8] was 49.9 fL, the PLT [1, 8] was 613 10^6 /ml and the RBC [1, 8] was 7.28 10^9 /ml. The WBC [1, 8] was 7.0 10^6 /ml, the HB [1, 9] was 131 g/L and the Hct [1, 9] was 0.378. The MCV [1, 9] was 50.1 fL, the PLT [1, 9] was 440 10^6 /ml and the RBC [1, 9] was 7.53 10^9 /ml. For the same substance, the WBC [1, 9] was 8.5 10^6 /ml, the “BPD in Plasma, Mean ± SD” value ([2]; 0 h - C, no light, 1 h post injection, 0.9 mg/kg) was 1.243 ± 0.262 µg/mL and the “BPD in Plasma” value ([2]; 0 h - C, no light, 1 h post injection, 0.9 mg/kg, 60 min) was 1.428 µg/mL and 1.058 µg/mL. The “BPD in Plasma, Mean ± SD” value [2, 10] was 0.690 ± 0.048 µg/mL, the “BPD in Plasma” value [2, 10] was 0.724 µg/mL and 0.656 µg/mL and the “BPD in Plasma, Mean ± SD” value [2, 11] was 0.168 ± 0.033 µg/mL. For the same substance, the “BPD in Plasma” value [2, 11] was 0.191 µg/mL and 0.145 µg/mL, the “BPD in Plasma, Mean ± SD” value [2, 12] was 0.930 ± 0.441 µg/mL and the “BPD in Plasma” value [2, 12] was 0.618 µg/mL and 1.242 µg/mL. The “BPD in Plasma, Mean ± SD” value [2, 13] was 0.596 ± 0.042 µg/mL, the “BPD in Plasma” value [2, 13] was 0.566 µg/mL and 0.626 µg/mL and the “BPD in Plasma, Mean ± SD” value ([2]; 1 h - C, no light, 2 h post injection, 0.9 mg/kg) was 0.944 ± 0.421 µg/mL. The “BPD in Plasma” value ([2]; 1 h - C, no light, 2 h post injection, 0.9 mg/kg, 120 min) was 0.646 µg/mL and 1.242 µg/mL, the “BPD in Plasma, Mean ± SD” value ([2]; 1 h light, 108 J/cm^2, 2 h post injection, 0.9 mg/kg) was 0.301 ± 0.061 µg/mL and the “BPD in Plasma” value ([2]; 1 h light, 108 J/cm^2, 2 h post injection, 0.9 mg/kg, 120 min) was 0.258 µg/mL and 0.344 µg/mL. The “photodegraded BPD, Dose” value ([2]; 54 J/cm^2) was 0.334 µg/mL, the “Photodegraded BPD” value ([2]; 54 J/cm^2, 0.9 mg/kg) was 36% and the “photodegraded BPD, Dose” value ([2]; 108 J/cm^2) was 0.643 µg/mL. The “Photodegraded BPD” value ([2]; 108 J/cm^2, 0.9 mg/kg) was 68%, the “photodegraded BPD, Dose” value ([2]; 162 J/cm^2) was 0.522 µg/mL and the “Photodegraded BPD” value ([2]; 162 J/cm^2, 0.9 mg/kg) was 76%. For the same substance, the “BPD photodegraded in blood in vivo” value ([2]; light doses of 54-162 J/cm^2, 0.9 mg/kg) was 36-76% and the “plasma concentrations of BPD at the beginning of exposure to light” value ([2]; present study, 0.9 mg/kg, 1 hour after injection) was “above 3 μg/ml”.
